Experimental data taken from paper PMC11995866, “Roles of basic amino acid residues in substrate binding and transport of the light-driven anion pump Synechocystis halorhodopsin (SyHR)” (The Journal of Biological Chemistry, 2025).
Changes are numbered by the printed parent chain.

How the values were obtained:
[1] = molecular target: T1, Synechocystis halorhodopsin (SyHR) (Synechocystis sp. PCC 7509, UniProt A0A9X9ZA75, R71Y); assay: biochemical
T1 sequence (A0A9X9ZA75 1-234 R71Y): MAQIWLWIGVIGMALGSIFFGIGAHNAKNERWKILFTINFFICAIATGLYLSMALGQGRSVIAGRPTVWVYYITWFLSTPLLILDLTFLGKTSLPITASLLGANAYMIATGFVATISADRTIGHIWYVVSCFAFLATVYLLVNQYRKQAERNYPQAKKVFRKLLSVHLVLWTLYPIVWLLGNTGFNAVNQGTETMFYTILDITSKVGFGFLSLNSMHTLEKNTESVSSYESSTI

[2] = molecular target: T2, Synechocystis halorhodopsin (SyHR) (Synechocystis sp. PCC 7509, UniProt A0A9X9ZA75, R71A); assay: biochemical
T2 sequence (A0A9X9ZA75 1-234 R71A): T1 sequence (A0A9X9ZA75 1-234 R71Y) with Y71A

[3] = molecular target: T3, Synechocystis halorhodopsin (SyHR) (Synechocystis sp. PCC 7509, UniProt A0A9X9ZA75, H167A); assay: absorption spectral shift titration (UV-visible), single-site Hill fit; type: binding
T3 construct: codon-optimised, C-terminal His6 tag, pET21a, E. coli BL21(DE3) with all-trans retinal; HisTrap-purified in DDM
T3 sequence (A0A9X9ZA75 1-234 H167A): T1 sequence (A0A9X9ZA75 1-234 R71Y) with Y71R, H167A

[4] = molecular target: T4, Synechocystis halorhodopsin (SyHR) (Synechocystis sp. PCC 7509, UniProt A0A9X9ZA75); assay: as above; type: binding
T4 construct: codon-optimised, C-terminal His6 tag, pET21a, E. coli BL21(DE3) with all-trans retinal; HisTrap-purified in DDM
T4 sequence (A0A9X9ZA75 1-234): T1 sequence (A0A9X9ZA75 1-234 R71Y) with Y71R

[5] = molecular target: T5, Synechocystis halorhodopsin (SyHR) (Synechocystis sp. PCC 7509, UniProt A0A9X9ZA75, R71K); assay: as above; type: binding
T5 construct: codon-optimised, C-terminal His6 tag, pET21a, E. coli BL21(DE3) with all-trans retinal; HisTrap-purified in DDM
T5 sequence (A0A9X9ZA75 1-234 R71K): T1 sequence (A0A9X9ZA75 1-234 R71Y) with Y71K

| Structure (SMILES) | Kd [1] | Kd [2] | Kd [3] | Kd [4] | Kd [5] |
| --- | --- | --- | --- | --- | --- |
| Cl [Cl^−] | 1400 µM | 4500 µM | 360 µM | 590 µM | 550 µM |
| O=S(=O)(O)O [SO4^2−] |  |  | 6500 µM | 3600 µM | 3800 µM |
